{
  "source": "paper PMC10004634",
  "about": "(PLOS ONE, 2023)",
  "system": "TMD8 cells",
  "assay": "SILAC phosphoproteomic analysis",
  "description": "For differential SILAC encoding, both cells were grown in arginine- and lysine-deficient culture medium containing light (Arg0/Lys0) or heavy (Arg10/Lys8) isotopic forms of L-arginine and L-lysine (SILAC medium). […] For mass spectrometric analysis, phosphopeptide-enriched samples were loaded onto a reversed phase analytical column, resolved by an acetonitrile gradient using a nanoflow HPLC system and directly electrosprayed via a nanoelectrospray ion source into an LTQ-Orbitrap Velos mass spectrometer (Thermo Fisher Scientific). […] A false discovery rate (FDR) of 0.01 was selected for protein and peptide identification, and a posterior error probability of ≤0.1 for each peptide-to-spectral match was required. The resulting list of phosphosites exported from the MaxQuant software was filtered for class-I sites (only serine, threonine, or tyrosine assignments with a localization probability of ≥0.75) [33] and used for all subsequent biostatistical analysis. […] Gaussian regression analysis on the histogram plot of these log2-transformed ratios was performed using Sigmaplot (version 10.0; Systat Software Inc.). The obtained values for the mean and standard deviation across the whole quantitative dataset were used to determine thresholds for significant regulation of at least ±2.5 σ. […] Furthermore, only phosphosites conforming to this criterion and showing consistent regulation in both biological replicates were considered as regulated.",
  "data": [
    {"smiles": "CC#CC(=O)N1CC[C@@H](n2c(=O)n(-c3ccc(Oc4ccccc4)cc3)c3c(N)ncnc32)C1", "note": "[Tirabrutinib]", "values": [
      {"measurement": "Tirabrutinib/ctrl. rep. 1", "setting": "NHE1 S796", "result": 0.62},
      {"measurement": "Tirabrutinib/ctrl. rep. 2", "setting": "NHE1 S796", "result": 0.78},
      {"measurement": "Tirabrutinib/ctrl. rep. 1", "setting": "PEA15 S82", "result": 0.88},
      {"measurement": "Tirabrutinib/ctrl. rep. 2", "setting": "PEA15 S82", "result": 0.96},
      {"measurement": "Regulation of Phosphorylation Site", "setting": "PEA15 S137", "result": "↓"},
      {"measurement": "Tirabrutinib/ctrl. rep. 1", "setting": "PEA15 S137", "result": 0.35},
      {"measurement": "Tirabrutinib/ctrl. rep. 2", "setting": "PEA15 S137", "result": 0.29},
      {"measurement": "Tirabrutinib/ctrl. rep. 1", "setting": "PIK3AP1 S642", "result": 0.94},
      {"measurement": "Tirabrutinib/ctrl. rep. 2", "setting": "PIK3AP1 S642", "result": 1.03},
      {"measurement": "Tirabrutinib/ctrl. rep. 1", "setting": "PIK3AP1 S759", "result": 0.83},
      {"measurement": "Tirabrutinib/ctrl. rep. 2", "setting": "PIK3AP1 S759", "result": 0.69},
      {"measurement": "Tirabrutinib/ctrl. rep. 1", "setting": "PIK3AP1 T151", "result": 1.07},
      {"measurement": "Tirabrutinib/ctrl. rep. 2", "setting": "PIK3AP1 T151", "result": 1.02},
      {"measurement": "Regulation of Phosphorylation Site", "setting": "PIK3AP1 Y570", "result": "↓"},
      {"measurement": "Tirabrutinib/ctrl. rep. 1", "setting": "PIK3AP1 Y570", "result": 0.51},
      {"measurement": "Tirabrutinib/ctrl. rep. 2", "setting": "PIK3AP1 Y570", "result": 0.41},
      {"measurement": "Tirabrutinib/ctrl. rep. 1", "setting": "PLCG2 S160", "result": 0.86},
      {"measurement": "Tirabrutinib/ctrl. rep. 2", "setting": "PLCG2 S160", "result": 1.09},
      {"measurement": "Tirabrutinib/ctrl. rep. 1", "setting": "PLCG2 S443", "result": 0.84},
      {"measurement": "Tirabrutinib/ctrl. rep. 2", "setting": "PLCG2 S443", "result": 1.41},
      {"measurement": "Tirabrutinib/ctrl. rep. 1", "setting": "PLCG2 Y753", "result": 0.79},
      {"measurement": "Tirabrutinib/ctrl. rep. 2", "setting": "PLCG2 Y753", "result": 0.55},
      {"measurement": "Regulation of Phosphorylation Site", "setting": "PRKCB S241", "result": "↑"},
      {"measurement": "Tirabrutinib/ctrl. rep. 1", "setting": "PRKCB S241", "result": 3.02},
      {"measurement": "Tirabrutinib/ctrl. rep. 2", "setting": "PRKCB S241", "result": 1.76},
      {"measurement": "Tirabrutinib/ctrl. rep. 1", "setting": "PRKCB S673", "result": 0.88},
      {"measurement": "Tirabrutinib/ctrl. rep. 2", "setting": "PRKCB S673", "result": 0.60},
      {"measurement": "Tirabrutinib/ctrl. rep. 1", "setting": "PRKCB T500", "result": 0.71},
      {"measurement": "Tirabrutinib/ctrl. rep. 2", "setting": "PRKCB T500", "result": 1.08},
      {"measurement": "Tirabrutinib/ctrl. rep. 1", "setting": "PRKCB T641", "result": 1.00},
      {"measurement": "Tirabrutinib/ctrl. rep. 2", "setting": "PRKCB T641", "result": 1.01},
      {"measurement": "Tirabrutinib/ctrl. rep. 1", "setting": "PRKCB T642", "result": 0.99},
      {"measurement": "Tirabrutinib/ctrl. rep. 2", "setting": "PRKCB T642", "result": 1.92},
      {"measurement": "Tirabrutinib/ctrl. rep. 1", "setting": "PRKD2 S198", "result": 0.55},
      {"measurement": "Tirabrutinib/ctrl. rep. 2", "setting": "PRKD2 S198", "result": 0.69},
      {"measurement": "Regulation of Phosphorylation Site", "setting": "PRKD2 S206", "result": "↓"},
      {"measurement": "Tirabrutinib/ctrl. rep. 1", "setting": "PRKD2 S206", "result": 0.32},
      {"measurement": "Tirabrutinib/ctrl. rep. 2", "setting": "PRKD2 S206", "result": 0.48},
      {"measurement": "Regulation of Phosphorylation Site", "setting": "PRKD2 S214", "result": "↓"},
      {"measurement": "Tirabrutinib/ctrl. rep. 1", "setting": "PRKD2 S214", "result": 0.46},
      {"measurement": "Tirabrutinib/ctrl. rep. 2", "setting": "PRKD2 S214", "result": 0.48},
      {"measurement": "Regulation of Phosphorylation Site", "setting": "PRKD2 S710", "result": "↓"},
      {"measurement": "Tirabrutinib/ctrl. rep. 1", "setting": "PRKD2 S710", "result": 0.45},
      {"measurement": "Tirabrutinib/ctrl. rep. 2", "setting": "PRKD2 S710", "result": 0.56},
      {"measurement": "Tirabrutinib/ctrl. rep. 1", "setting": "PRKD3 S31", "result": 0.76},
      {"measurement": "Tirabrutinib/ctrl. rep. 2", "setting": "PRKD3 S31", "result": 0.85},
      {"measurement": "Tirabrutinib/ctrl. rep. 1", "setting": "PRKD3 S213", "result": 1.40},
      {"measurement": "Tirabrutinib/ctrl. rep. 2", "setting": "PRKD3 S213", "result": 1.11},
      {"measurement": "Tirabrutinib/ctrl. rep. 1", "setting": "PRKD3 S364", "result": 0.98},
      {"measurement": "Tirabrutinib/ctrl. rep. 2", "setting": "PRKD3 S364", "result": 0.97},
      {"measurement": "Tirabrutinib/ctrl. rep. 1", "setting": "PRKD3 S395", "result": 0.77},
      {"measurement": "Tirabrutinib/ctrl. rep. 2", "setting": "PRKD3 S395", "result": 0.65},
      {"measurement": "Regulation of Phosphorylation Site", "setting": "PRKD3 S735", "result": "↓"},
      {"measurement": "Tirabrutinib/ctrl. rep. 1", "setting": "PRKD3 S735", "result": 0.41},
      {"measurement": "Tirabrutinib/ctrl. rep. 2", "setting": "PRKD3 S735", "result": 0.43},
      {"measurement": "Regulation of Phosphorylation Site", "setting": "RAF1 S1055", "result": "↓"},
      {"measurement": "Tirabrutinib/ctrl. rep. 1", "setting": "RAF1 S1055", "result": 0.61},
      {"measurement": "Tirabrutinib/ctrl. rep. 2", "setting": "RAF1 S1055", "result": 0.61},
      {"measurement": "Tirabrutinib/ctrl. rep. 1", "setting": "RELA S203", "result": 0.85},
      {"measurement": "Tirabrutinib/ctrl. rep. 2", "setting": "RELA S203", "result": 1.23},
      {"measurement": "Tirabrutinib/ctrl. rep. 1", "setting": "RELA S238", "result": 0.84},
      {"measurement": "Tirabrutinib/ctrl. rep. 2", "setting": "RELA S238", "result": 1.07},
      {"measurement": "Tirabrutinib/ctrl. rep. 1", "setting": "RPS6KA1 S230", "result": 0.93},
      {"measurement": "Tirabrutinib/ctrl. rep. 2", "setting": "RPS6KA1 S230", "result": 0.89},
      {"measurement": "Regulation of Phosphorylation Site", "setting": "RPS6KA1 S741", "result": "↓"},
      {"measurement": "Tirabrutinib/ctrl. rep. 1", "setting": "RPS6KA1 S741", "result": 0.61},
      {"measurement": "Tirabrutinib/ctrl. rep. 2", "setting": "RPS6KA1 S741", "result": 0.59},
      {"measurement": "Tirabrutinib/ctrl. rep. 1", "setting": "RPS6KA1 T234", "result": 0.93},
      {"measurement": "Tirabrutinib/ctrl. rep. 2", "setting": "RPS6KA1 T234", "result": 0.96},
      {"measurement": "Tirabrutinib/ctrl. rep. 1", "setting": "TSC2 S1411", "result": 1.07},
      {"measurement": "Tirabrutinib/ctrl. rep. 2", "setting": "TSC2 S1411", "result": 1.15},
      {"measurement": "Tirabrutinib/ctrl. rep. 1", "setting": "TSC2 S1418", "result": 1.12},
      {"measurement": "Tirabrutinib/ctrl. rep. 2", "setting": "TSC2 S1418", "result": 1.10},
      {"measurement": "Tirabrutinib/ctrl. rep. 1", "setting": "TSC2 S1799", "result": 1.15},
      {"measurement": "Tirabrutinib/ctrl. rep. 2", "setting": "TSC2 S1799", "result": 0.89},
      {"measurement": "Regulation of Phosphorylation Site", "setting": "YBX1 S102", "result": "↓"},
      {"measurement": "Tirabrutinib/ctrl. rep. 1", "setting": "YBX1 S102", "result": 0.60},
      {"measurement": "Tirabrutinib/ctrl. rep. 2", "setting": "YBX1 S102", "result": 0.46},
      {"measurement": "Tirabrutinib/ctrl. rep. 1", "setting": "YBX1 S165", "result": 0.91},
      {"measurement": "Tirabrutinib/ctrl. rep. 2", "setting": "YBX1 S165", "result": 0.96},
      {"measurement": "Tirabrutinib/ctrl. rep. 1", "setting": "YBX1 S167", "result": 1.07}
    ]}
  ]
}
